Patent US8591943B2, “Pyrazolo[1,5-a]pyrimidine derivatives as mTOR inhibitors” (Merck Sharp & Dohme Corp., priority 2009, dated 2013)
pIC50: −log10 of the molar value.

Key:
[1] = target: T1, Cyclin E/CDK2 (Homo sapiens, UniProt P24941); test: In Vitro Cyclin E/CDK2 Kinase Assay; format: biochemical; settings: rated A-F
T1 construct: made in house; host or cells: SF9 cells, baculovirus co-infection
Description: Cyclin E was cloned into pVL1393 (Pharmingen, La Jolla, Calif.) by PCR, with the addition of 5 histidine residues at the amino-terminal end to allow purification on nickel resin. The expressed protein was approximately 45 kDa. CDK2 was cloned into pVL1393 by PCR, with the addition of a haemaglutinin epitope tag at the carboxy-terminal end (YDVPDYAS). The expressed protein was approximately 34 kDa in size.
Recombinant baculoviruses expressing cyclin E and CDK2 were co-infected into SF9 cells at an equal multiplicity of infection (MOI=5), for 48 hrs. Cells were harvested by centrifugation at 1000 RPM for 10 minutes, then pellets lysed on ice for 30 minutes in five times the pellet volume of lysis buffer containing 50 mM Tris pH 8.0, 150 mM NaCl, 1% NP40, 1 mM DTT and protease inhibitors (Roche Diagnostics GmbH, Mannheim, Germany). Lysates were spun down at 15000 RPM for 10 minutes and the supernatant retained. 5 mL of nickel beads (for one liter of SF9 cells) were washed three times in lysis buffer (Qiagen GmbH, Germany). Imidazole was added to the baculovirus supernatant to a final concentration of 20 mM, then incubated with the nickel beads for 45 minutes at 4° C. Proteins were eluted with lysis buffer containing 250 mM imidazole. Eluate was dialyzed about 15 hours in 2 liters of kinase buffer containing 50 mM Tris pH 8.0, 1 mM DTT, 10 mM MgCl2, 100 μM sodium orthovanadate and 20% glycerol. Enzyme was stored in aliquots at −70° C.
Cyclin E/CDK2 kinase assays can be performed as described below in low protein binding 96-well plates (Corning Inc, Corning, N.Y.).
The substrate used in these reactions is a biotinylated peptide derived from Histone H1 (from Amersham, UK). The substrate is thawed on ice and diluted to 2 μM in kinase buffer. Test compounds are diluted in 10% DMSO to desirable concentrations. For each kinase reaction, 20 μL of the 50 μg/mL enzyme solution (1 μg of enzyme) and 20 μl of the 2 μM substrate solution are mixed, then combined with 10 μL of diluted compound in each well for testing. The kinase reaction is initiated by addition of 50 μL of 2 μM ATP and 0.1 μCi of ^33P-ATP (from Amersham, UK). The reaction is allowed to run for 1 hour at room temperature, then is stopped by adding 200 μL of stop buffer containing 0.1% Triton X-100, 1 mM ATP, 5 mM EDTA, and 5 mg/mL streptavidine coated SPA beads (from Amersham, UK) for 15 minutes. The SPA beads are then captured onto a 96-well GFIB filter plate (Packard/Perkin Elmer Life Sciences) using a Filtermate universal harvester (Packard/Perkin Elmer Life Sciences.). Non-specific signals are eliminated by washing the beads twice with 2M NaCl then twice with 2 M NaCl with 1% phosphoric acid. The radioactive signal can then be measured using, for example, a TopCount 96 well liquid scintillation counter (from Packard/Perkin Elmer Life Sciences).

[2] = target: T2, recombinant His-CHK1 (Homo sapiens, UniProt O14757); test: CHK1 In Vitro Kinase Assay
T2 sequence (O14757 1-265 limits assumed): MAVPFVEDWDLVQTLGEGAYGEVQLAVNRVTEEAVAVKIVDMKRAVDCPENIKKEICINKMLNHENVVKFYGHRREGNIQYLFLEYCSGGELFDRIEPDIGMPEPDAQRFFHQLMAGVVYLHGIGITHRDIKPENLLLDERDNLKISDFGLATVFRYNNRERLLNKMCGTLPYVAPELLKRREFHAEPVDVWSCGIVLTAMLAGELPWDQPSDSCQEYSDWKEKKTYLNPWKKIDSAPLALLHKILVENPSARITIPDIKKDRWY

[3] = target: mTOR enzyme (Homo sapiens, UniProt P42345); test: mTOR Kinase Assay; format: biochemical; settings: rated A-F
Experimental: The mTOR assay buffer contains 10 mM hepes (pH 7.4), 50 mM NaCl, 100 μg/ml BSA, 50 mM B-glycerophosphate, 10 mM MnCl2 and 0.5 mM DTT. 20 ng of mTOR enzyme is preincubated with the compound for 10 minutes. 5 μM ATP and 0.1 μM GSTS6K is added. The reaction is incubated for one hour at 30° C. Anti phospho p70S6K (about 1.7 ng/well) and anti GSTXL665 (1:1 Ratio with the substrate GSTS6K) are added after incubating. The plates are read at least 2 hours after adding the anti phospho p70S6K and the anti GSTXL665.

**Q.** `Nc1c(Br)c(N2CCC[S+]([O-])CC2)nc2c(-c3cnc4ccccc4c3)cnn12` (stereo not drawn) [Compound 10.63] was tested. Which pIC50 [1] did it give?
**A.** The pIC50 was < 5.30.

**Q.** And the pIC50 [2]?
**A.** Its pIC50 is < 5.30.

**Q.** What about the pIC50 [3] of the same compound?
**A.** Its pIC50 is > 7.00.

**Q.** What does the source list for `Nc1c(Br)c(N2CCCS(=O)(=O)CC2)nc2c(-c3cnc4ccccc4c3)cnn12` [Compound 10.64]?
**A.** pIC50 [1]: < 5.30; pIC50 [2]: < 5.30; pIC50 [3]: > 7.00

**Q.** Which results are given for `COC(=O)c1ccc(-c2cc(N)n3ncc(-c4cnc5ccccc5c4)c3n2)cn1` [Compound 11.3]?
**A.** pIC50 [1]: < 5.30; pIC50 [2]: < 5.30; pIC50 [3]: 5.30 to 6.00

**Q.** Which results are given for `Nc1c(Br)c(CN2CCOCC2)nc2c(-c3cnc4ccccc4c3)cnn12` [Compound 13.2, 6-bromo-5-(morpholinomethyl)-3-(quinolin-3-yl)pyrazolo[1,5-a]pyrimidin-7-amine]?
**A.** pIC50 [1]: < 5.30; pIC50 [2]: < 5.30; pIC50 [3]: > 7.00

**Q.** What does the source list for `Nc1cc(CN2CCN3C(=O)NC(=O)C3C2)nc2c(-c3cnc4ccccc4c3)cnn12` (stereo not drawn) [Compound 13.3]?
**A.** pIC50 [1]: < 5.30; pIC50 [2]: < 5.30; pIC50 [3]: 6.30 to 6.70

**Q.** What does the source list for `Nc1c(Br)c(CN2CCN3C(=O)NC(=O)C3C2)nc2c(-c3cnc4ccccc4c3)cnn12` (stereo not drawn) [Compound 13.4]?
**A.** pIC50 [1]: < 5.30; pIC50 [2]: < 5.30; pIC50 [3]: > 7.00

**Q.** What does the source list for `Nc1c(Br)c(CNC2CCOCC2)nc2c(-c3cnc4ccccc4c3)cnn12` [Compound 13.16]?
**A.** pIC50 [1]: < 5.30; pIC50 [2]: < 5.30; pIC50 [3]: > 7.00
